In US9409908B2 (priority 2012, dated 2016):
Structures can show the parent of a compound that is named as a salt.

Molecular target: purified human Factor XIa (Homo sapiens (Human), UniProt P03951)
Test: biochemical
Assay type: biochemical
Conditions: read-out: Factor XIa Ki

Chain of purified human Factor XIa (P03951 whole entry, looked up): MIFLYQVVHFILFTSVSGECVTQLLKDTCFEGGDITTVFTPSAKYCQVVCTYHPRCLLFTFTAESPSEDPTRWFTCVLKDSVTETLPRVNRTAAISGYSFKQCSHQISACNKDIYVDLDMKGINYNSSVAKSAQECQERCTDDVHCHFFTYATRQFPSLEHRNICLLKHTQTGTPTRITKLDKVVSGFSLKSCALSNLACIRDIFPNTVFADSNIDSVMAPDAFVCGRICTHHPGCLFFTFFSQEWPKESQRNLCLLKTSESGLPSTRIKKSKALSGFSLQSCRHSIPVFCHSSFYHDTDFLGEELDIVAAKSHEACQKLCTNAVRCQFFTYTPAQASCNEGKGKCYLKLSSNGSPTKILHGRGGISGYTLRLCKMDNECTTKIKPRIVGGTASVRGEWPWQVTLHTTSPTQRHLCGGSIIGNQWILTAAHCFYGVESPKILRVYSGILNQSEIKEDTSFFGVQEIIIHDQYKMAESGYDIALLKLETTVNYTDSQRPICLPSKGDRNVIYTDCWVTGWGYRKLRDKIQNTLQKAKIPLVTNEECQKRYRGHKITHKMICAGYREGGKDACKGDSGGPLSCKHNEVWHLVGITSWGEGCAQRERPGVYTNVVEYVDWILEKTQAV
Chain of purified human Factor XIa (P03951 whole entry partner, looked up): as the sequence (P03951 whole entry, looked up) above

| SMILES | Ki [nM] |
| --- | --- |
| C[C@@H]1CCC[C@H](n2ccc(-c3c(F)ccc(Cl)c3F)cc2=O)c2cc(ccn2)-c2ccc(Nc3ncccn3)cc2NC1=O [Example 92, (10R,14S)-14-[4-(3-Chloro-2,6-difluorophenyl)-2-oxo-1,2-dihydropyridin-1-yl]-10-methyl-5-[(pyrimidin-2-yl)amino]-8,16-diazatricyclo[13.3.1.0^2,7]nonadeca-1(19),2(7),3,5,15,17-hexaen-9-one, 2 TFA salt] | 0.56 |
| COC(=O)Nc1ccc2c(c1)NC(=O)[C@H](C)CCC[C@H](N1CCC(c3cc(Cl)ccc3OC(F)F)=CC1=O)c1cc-2ccn1 [Example 44, Methyl N-[(10R,14S)-14-{4-[5-chloro-2-(difluoromethoxy)phenyl]-6-oxo-1,2,3,6-tetrahydropyridin-1-yl}-10-methyl-9-oxo-8,16-diazatricyclo[13.3.1.0^2,7]nonadeca-1(19),2,4,6,15,17-hexaen-5-yl]carbamate, TFA salt] | 0.13 |
| COC(=O)c1cc2c(cc1N)NC(=O)[C@H](C)CCC[C@H](N1CCC(c3c(F)ccc(Cl)c3F)=CC1=O)c1cc-2ccn1 [Example 197, Methyl (10R,14S)-5-amino-14-[4-(3-chloro-2,6-difluorophenyl)-6-oxo-1,2,3,6-tetrahydropyridin-1-yl]-10-methyl-9-oxo-8,16-diazatricyclo[13.3.1.0^2,7]nonadeca-1(19),2,4,6,15,17-hexaene-4-carboxylate, 2 TFA salt] | 4.54 |
| COC(=O)Nc1ccc2c(c1)NC(=O)[C@H](C)CCC[C@H](N1CCC(c3cncn3C)=CC1=O)c1cc-2ccn1 [Example 97, Methyl N-[(10R,14S)-10-methyl-14-[4-(1-methyl-1H-imidazol-5-yl)-6-oxo-1,2,3,6-tetrahydropyridin-1-yl]-9-oxo-8,16-diazatricyclo[13.3.1.0^2,7]nonadeca-1(19),2,4,6,15,17-hexaen-5-yl]carbamate, 2 TFA salt] | > 408 |
| COC(=O)Nc1cc2n(n1)-c1ccnc(c1)[C@@H](N1CCC(c3c(F)ccc(Cl)c3F)=CC1=O)CCC[C@@H](C)C(=O)N2 [Example 224, Methyl N-[(9R,13S)-13-[4-(3-chloro-2,6-difluorophenyl)-6-oxo-1,2,3,6-tetrahydropyridin-1-yl]-9-methyl-8-oxo-2,3,7,15-tetraazatricyclo[12.3.1.0^2,6]octadeca-1(18),3,5,14,16-pentaen-4-yl]carbamate] | 298 |
| CCOC(=O)Cc1nnc(Nc2ccc3c(c2)NC(=O)[C@H](C)CCC[C@H](N2CCC(c4c(F)ccc(Cl)c4F)=CC2=O)c2cc-3ccn2)o1 [Example 42, Ethyl 2-(5-{[(10R,14S)-14-[4-(3-chloro-2,6-difluorophenyl)-6-oxo-1,2,3,6-tetrahydropyridin-1-yl]-10-methyl-9-oxo-8,16-diazatricyclo[13.3.1.0^2,7]nonadeca-1(19),2,4,6,15,17-hexaen-5-yl]amino}-1,3,4-oxadiazol-2-yl)acetate, TFA salt] | 0.45 |
| COC(=O)Nc1ccc2c(c1)NC(=O)[C@H](C)CCC[C@H](N1CCC(c3ccnc(Cl)c3)=CC1=O)c1cc-2ccn1 [Example 156, Methyl N-[(10R,14S)-14-[4-(2-chloropyridin-4-yl)-6-oxo-1,2,3,6-tetrahydropyridin-1-yl]-10-methyl-9-oxo-8,16-diazatricyclo[13.3.1.0^2,7]nonadeca-1(19),2,4,6,15,17-hexaen-5-yl]carbamate, 2 TFA salt] | > 446 |
| CC(C)[C@@H]1CCC[C@H](N2CCC(c3c(-n4cnnn4)ccc(Cl)c3F)=CC2=O)c2cc(ccn2)-c2ccccc2NC1=O [Example 100, (10S,14S)-14-{4-[3-chloro-2-fluoro-6-(1H-1,2,3,4-tetrazol-1-yl)phenyl]-6-oxo-1,2,3,6-tetrahydropyridin-1-yl}-10-(propan-2-yl)-8,16-diazatricyclo[13.3.1.0^2,7]nonadeca-1(18),2,4,6,15(19),16-hexaen-9-one, TFA salt] | 0.09 |
| C[C@@H]1CCC[C@H](N2CCC(c3c(F)ccc(Cl)c3F)=CC2=O)c2cc(ccn2)-n2nc(C(=O)O)cc2NC1=O [Example 222, (9R,13S)-13-[4-(3-chloro-2,6-difluorophenyl)-6-oxo-1,2,3,6-tetrahydropyridin-1-yl]-9-methyl-8-oxo-2,3,7,15-tetraazatricyclo[12.3.1.0^2,6]octadeca-1(18),3,5,14,16-pentaene-4-carboxylic acid] | 88.4 |
| C[C@@H]1CCC[C@H](N2CCC(c3c(F)ccc(Cl)c3F)=CC2=O)c2cc(ccn2)-c2ccc(NC(=N)N)cc2NC1=O [Example 192, 1-[(10R,14S)-14-[4-(3-chloro-2,6-difluorophenyl)-6-oxo-1,2,3,6-tetrahydropyridin-1-yl]-10-methyl-9-oxo-8,16-diazatricyclo[13.3.1.0^2,7]nonadeca-1(19),2,4,6,15,17-hexaen-5-yl]guanidine, 2 TFA salt] | 91 |
| CC(=O)Nc1ccc2c(c1)NC(=O)[C@H](C)CCC[C@H](N1CCC(c3c(F)ccc(Cl)c3F)=CC1=O)c1cc-2ccn1 [Example 75, N-[(10R,14S)-14-[4-(3-Chloro-2,6-difluorophenyl)-6-oxo-1,2,3,6-tetrahydropyridin-1-yl]-10-methyl-9-oxo-8,16-diazatricyclo[13.3.1.0^2,7]nonadeca-1(19),2(7),3,5,15,17-hexaen-5-yl]acetamide, TFA salt] | 3.54 |
| C[C@@H]1CCC[C@H](N2CCC(c3c(F)ccc(Cl)c3F)=CC2=O)c2cc(ccn2)-c2cc(F)ccc2NC1=O [Example 145, (10R,14S)-14-[4-(3-chloro-2,6-difluorophenyl)-6-oxo-1,2,3,6-tetrahydropyridin-1-yl]-4-fluoro-10-methyl-8,16-diazatricyclo[13.3.1.0^2,7]nonadeca-1(19),2(7),3,5,15,17-hexaen-9-one] | 18.6 |
| CC1CCC[C@H](N2CCC(c3cccc(Cl)c3F)=CC2=O)c2cc(ccn2)-c2ccc(C(N)=O)cc2NC1=O (stereo partly drawn) [Example 35, (14S)-14-[4-(3-Chloro-2-fluorophenyl)-6-oxo-1,2,3,6-tetrahydropyridin-1-yl]-10-methyl-9-oxo-8,16-diazatricyclo[13.3.1.0^2,7]nonadeca-1(19),2,4,6,15,17-hexaene-5-carboxamide, TFA salt] | 104 |
| C[C@@H]1CCC[C@H](N2CCC(c3c(F)ccc(Cl)c3F)=CC2=O)c2cc(ccn2)-c2cc(-c3nn[nH]n3)ccc2NC1=O [Example 140, (10R,14S)-14-[4-(3-chloro-2,6-difluorophenyl)-6-oxo-1,2,3,6-tetrahydropyridin-1-yl]-10-methyl-4-(2H-1,2,3,4-tetrazol-5-yl)-8,16-diazatricyclo[13.3.1.0^2,7]nonadeca-1(19),2(7),3,5,15,17-hexaen-9-one] | 1.34 |
| C[C@@H]1CCC[C@H](N2CCC(c3cc(Cl)ccc3-n3ccnn3)=CC2=O)c2cc(ccn2)-c2ccccc2NC1=O [Example 189, (10R,14S)-14-{4-[5-chloro-2-(1H-1,2,3-triazol-1-yl)phenyl]-6-oxo-1,2,3,6-tetrahydropyridin-1-yl}-10-methyl-8,16-diazatricyclo[13.3.1.0^2,7]nonadeca-1(19),2(7),3,5,15,17-hexaen-9-one] | 2.28 |
| C[C@@H]1CCC[C@H](N2CCC(c3c(F)ccc(Cl)c3F)=CC2=O)c2cc(ccn2)-c2cc(C(=O)O)ccc2NC1=O [Example 146, (10R,14S)-14-[4-(3-chloro-2,6-difluorophenyl)-6-oxo-1,2,3,6-tetrahydropyridin-1-yl]-10-methyl-9-oxo-8,16-diazatricyclo[13.3.1.0^2,7]nonadeca-1(19),2(7),3,5,15,17-hexaene-4-carboxylic acid] | 2.45 |
| COC(=O)Nc1ccc2c(c1)NC(=O)[C@H](C)CCC[C@H](N1CCC(c3cncn3Cc3ccccc3)=CC1=O)c1cc-2ccn1 [Example 101, Methyl N-[(10R,14S)-14-[4-(1-benzyl-1H-imidazol-5-yl)-6-oxo-1,2,3,6-tetrahydropyridin-1-yl]-10-methyl-9-oxo-8,16-diazatricyclo[13.3.1.0^2,7]nonadeca-1(19),2,4,6,15,17-hexaen-5-yl]carbamate, bis TFA salt] | > 434 |
| C[C@@H]1CCC[C@H](N2CCC(c3c(F)ccc(Cl)c3F)=CC2=O)c2cc(ccn2)-c2ccc(N)cc2NC1=O [Example 12, (10R,14S)-5-Amino-14-[4-(3-chloro-2,6-difluorophenyl)-6-oxo-1,2,3,6-tetrahydropyridin-1-yl]-10-methyl-8,16-diazatricyclo[13.3.1.0^2,7]nonadeca-1(19),2,4,6,15,17-hexaen-9-one] | 1.5 |
| COC(=O)Nc1ccc2c(c1)NC(=O)[C@H](C)CCC[C@H](N1CCC(c3c(C#N)ccc(C)c3F)=CC1=O)c1cc-2ccn1 [Example 104, Methyl N-[(10R,14S)-14-[4-(6-cyano-2-fluoro-3-methylphenyl)-6-oxo-1,2,3,6-tetrahydropyridin-1-yl]-10-methyl-9-oxo-8,16-diazatricyclo[13.3.1.0^2,7]nonadeca-1(18),2,4,6,15(19),16-hexaen-5-yl]carbamate, TFA salt] | 0.09 |
| C#Cc1ccc(Cl)c(F)c1C1=CC(=O)N([C@H]2CCC[C@@H](C)C(=O)Nc3cc(NC(=O)OC)ccc3-c3ccnc2c3)CC1 [Example 181, Methyl N-[(10R,14S)-14-[4-(3-chloro-6-ethynyl-2-fluorophenyl)-6-oxo-1,2,3,6-tetrahydropyridin-1-yl]-10-methyl-9-oxo-8,16-diazatricyclo[13.3.1.0^2,7]nonadeca-1(19),2(7),3,5,15,17-hexaen-5-yl]carbamate] | 0.1 |
| COC(=O)Nc1ccc2c(c1)NC(=O)[C@H](C)CCC[C@H](N1CCC(c3c(C#N)ccc(Cl)c3F)=CC1=O)c1cccc-2c1 [Example 173, Methyl N-[(10R,14S)-14-[4-(3-chloro-6-cyano-2-fluorophenyl)-6-oxo-1,2,3,6-tetrahydropyridin-1-yl]-10-methyl-9-oxo-8-azatricyclo[13.3.1.0^2,7]nonadeca-1(18),2,4,6,15(19),16-hexaen-5-yl]carbamate] | 0.42 |
| C[C@@H]1CCC[C@H](n2ccc(-c3c(F)ccc(Cl)c3F)cc2=O)c2cc(ccn2)-c2ccc(N)cc2NC1=O [Example 91, (10R,14S)-5-Amino-14-[4-(3-chloro-2,6-difluorophenyl)-2-oxo-1,2-dihydropyridin-1-yl]-10-methyl-8,16-diazatricyclo[13.3.1.0^2,7]nonadeca-1(19),2,4,6,15,17-hexaen-9-one, 2 TFA salt] | 0.56 |
